≈ marks a conversion by molar mass, not a printed value.
Columns and labels:
Assay in all cases: in vitro antibacterial evaluation, MIC by broth dilution
Assay type in all cases: cell-based
Enterococcus sp. = conditions: broth dilution, 18 hours at 35° C.
Summary of the method: (§1)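 Read-out: the lowest concentration at which the test strain fails to grow. Serial dilutions (64-0.06 μg/mL) in Muller-Hinton II […], 5×10^5 CFU/mL inoculum, NCCLS M7-A2 procedure.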

Staphylococcus sp. = conditions: broth dilution, 18 hours at 35° C.; for MIC Staphylococcus aureus (GC 1131): strain GC 1131; for MIC Staphylococcus aureus (ATCC 29213): strain ATCC 29213; for MIC Staphylococcus aureus (GC 3051): strain GC 3051; for MIC Staphylococcus aureus (GC 3053): strain GC 3053; for MIC Staphylococcus aureus (GC 4541): strain GC 4541; for MIC Staphylococcus aureus (GC 4542): strain GC 4542; for MIC Staphylococcus aureus-SMITH (GC 4543): strain GC 4543; for MIC Staphylococcus aureus (GC 4544): strain GC 4544; for MIC Staphylococcus aureus (GC 4545): strain GC 4545; for MIC Staphylococcus haemolyticus (GC 4546): strain GC 4546; for MIC Coagulase Negative Staphylococcus (GC 4547): strain GC 4547; for MIC Coagulase Negative Staphylococcus (GC 4548): strain GC 4548; for MIC Coagulase Negative Staphylococcus (GC 4549): strain GC 4549; for MIC Coagulase Negative Staphylococcus (GC 4551): strain GC 4551; for MIC Coagulase Negative Staphylococcus (GC 6257): strain GC 6257
Summary of the method: as §1

Streptococcus sp. = conditions: broth dilution, 18 hours at 35° C.
Summary of the method: as §1

Escherichia coli = conditions: 18 hours at 35° C.
[1] = inoculum 5×10^5 CFU/mL, strain ATCC 29212
[2] = inoculum 5×10^5 CFU/mL, strain GC 2242
[3] = inoculum 5×10^5 CFU/mL, strain GC 2243
[4] = inoculum 5×10^5 CFU/mL, strain GC 2691
[5] = inoculum 5×10^5 CFU/mL, strain GC 3059
[6] = inoculum 5×10^5 CFU/mL, strain GC 4552
[7] = inoculum 5×10^5 CFU/mL, strain GC 4553
[8] = inoculum 5×10^5 CFU/mL, strain GC 4554
[9] = inoculum 5×10^5 CFU/mL, strain GC 4556
[10] = inoculum 5×10^5 CFU/mL, strain GC 4557
[11] = inoculum 5×10^5 CFU/mL, strain GC 4558
[12] = inoculum 5×10^5 CFU/mL, strain GC 6189
[13] = inoculum 5×10^5 CFU/mL, strain ATCC 6301
[14] = inoculum 5×10^5 CFU/mL, strain GC 1894
[15] = inoculum 5×10^5 CFU/mL, strain GC 4563
[16] = inoculum 5×10^5 CFU/mL, strain GC 4564
[17] = inoculum 5×10^5 CFU/mL, strain GC 4565

## CC(c1ccccc1)C1NC(=O)CNC(=O)C(CO)NC(=O)C(C(O)C2CNC(=N)N2C2OC(CO)C(O)C(O)C2O)NC(=O)C(C(O)C2CNC(=N)N2)NC(=O)C(Cc2ccc(OC3OC(CO)C(OC4OC5COC(c6ccccc6)OC5C(O)C4O)C(O)C3O)c(I)c2)NC1=O (stereo not drawn) [Example 196]
Enterococcus sp.
  MIC Enterococcus avium (GC 4558): 32 µg/mL (≈ 21.2 µM)
  MIC Enterococcus faecalis (ATCC 29212): >64 µg/mL
  MIC Enterococcus faecalis (GC 2242): >64 µg/mL
  MIC Enterococcus faecalis (GC 2691): >64 µg/mL
  MIC Enterococcus faecalis (GC 3059): >64 µg/mL
  MIC Enterococcus faecalis (GC 4552): >64 µg/mL
  MIC Enterococcus faecalis (GC 4553): 64 µg/mL (≈ 42.4 µM)
  MIC Enterococcus faecalis (GC 4554): >64 µg/mL
  MIC Enterococcus faecalis (GC 6189): >64 µg/mL
  MIC Enterococcus faecium (GC 2243): 64 µg/mL (≈ 42.4 µM)
  MIC Enterococcus faecium (GC 4556): >64 µg/mL
  MIC Enterococcus faecium (GC 4557): 8 µg/mL (≈ 5.3 µM)
Enterococcus sp.; [1]
  MIC Enterococcus faecalis (ATCC 29212): >64 µg/mL
Enterococcus sp.; [2]
  MIC Enterococcus faecalis (GC 2242): >64 µg/mL
Enterococcus sp.; [3]
  MIC Enterococcus faecium (GC 2243): 64 µg/mL (≈ 42.4 µM)
Enterococcus sp.; [4]
  MIC Enterococcus faecalis (GC 2691): >64 µg/mL
Enterococcus sp.; [5]
  MIC Enterococcus faecalis (GC 3059): >64 µg/mL
Enterococcus sp.; [6]
  MIC Enterococcus faecalis (GC 4552): >64 µg/mL
Enterococcus sp.; [7]
  MIC Enterococcus faecalis (GC 4553): 64 µg/mL (≈ 42.4 µM)
Enterococcus sp.; [8]
  MIC Enterococcus faecalis (GC 4554): >64 µg/mL
Enterococcus sp.; [9]
  MIC Enterococcus faecium (GC 4556): >64 µg/mL
Enterococcus sp.; [10]
  MIC Enterococcus faecium (GC 4557): 8 µg/mL (≈ 5.3 µM)
Enterococcus sp.; [11]
  MIC Enterococcus avium (GC 4558): 32 µg/mL (≈ 21.2 µM)
Enterococcus sp.; [12]
  MIC Enterococcus faecalis (GC 6189): >64 µg/mL
Staphylococcus sp.; inoculum 5×10^5 CFU/mL
  MIC Staphylococcus aureus (GC 1131): >64 µg/mL
Staphylococcus sp.
  MIC Staphylococcus aureus (ATCC 29213): >64 µg/mL
  MIC Staphylococcus aureus (GC 1131): >64 µg/mL
  MIC Staphylococcus aureus (GC 3051): >64 µg/mL
  MIC Staphylococcus aureus (GC 3053): >64 µg/mL
  MIC Staphylococcus aureus (GC 4541): 64 µg/mL (≈ 42.4 µM)
  MIC Staphylococcus aureus (GC 4542): >64 µg/mL
  MIC Staphylococcus aureus-SMITH (GC 4543): >64 µg/mL
  MIC Staphylococcus aureus (GC 4544): >64 µg/mL
  MIC Staphylococcus aureus (GC 4545): 64 µg/mL (≈ 42.4 µM)
  MIC Staphylococcus haemolyticus (GC 4546): 32 µg/mL (≈ 21.2 µM)
  MIC Coagulase Negative Staphylococcus (GC 4547): 32 µg/mL (≈ 21.2 µM)
  MIC Coagulase Negative Staphylococcus (GC 4548): 64 µg/mL (≈ 42.4 µM)
  MIC Coagulase Negative Staphylococcus (GC 4549): 64 µg/mL (≈ 42.4 µM)
  MIC Coagulase Negative Staphylococcus (GC 4551): >64 µg/mL
  MIC Coagulase Negative Staphylococcus (GC 6257): 64 µg/mL (≈ 42.4 µM)
Streptococcus sp.
  MIC Streptococcus agalactiae (GC 4564): >64 µg/mL
  MIC Streptococcus pneumoniae (ATCC 6301): 64 µg/mL (≈ 42.4 µM)
  MIC Streptococcus pneumoniae (GC 1894): 64 µg/mL (≈ 42.4 µM)
  MIC Streptococcus pneumoniae (GC 4565): 64 µg/mL (≈ 42.4 µM)
  MIC Streptococcus pyogenes (GC 4563): 32 µg/mL (≈ 21.2 µM)
Streptococcus sp.; [13]
  MIC Streptococcus pneumoniae (ATCC 6301): 64 µg/mL (≈ 42.4 µM)
Streptococcus sp.; [14]
  MIC Streptococcus pneumoniae (GC 1894): 64 µg/mL (≈ 42.4 µM)
Streptococcus sp.; [15]
  MIC Streptococcus pyogenes (GC 4563): 32 µg/mL (≈ 21.2 µM)
Streptococcus sp.; [16]
  MIC Streptococcus agalactiae (GC 4564): >64 µg/mL
Streptococcus sp.; [17]
  MIC Streptococcus pneumoniae (GC 4565): 64 µg/mL (≈ 42.4 µM)
Escherichia coli
  MIC Escherichia coli (ATCC 25922): 64 µg/mL (≈ 42.4 µM)
  MIC Escherichia coli (GC 4559): 64 µg/mL (≈ 42.4 µM)
  MIC Escherichia coli (GC 4560): 8 µg/mL (≈ 5.3 µM)

## CCCC(C)C1OCC2OC(OC3C(CO)OC(Oc4ccc(CC5NC(=O)C(C(C)c6ccc(Cl)cc6)NC(=O)CNC(=O)C(CO)NC(=O)C(C(O)C6CNC(=N)N6C6OC(CO)C(O)C(O)C6O)NC(=O)C(C(O)C6CNC(=N)N6)NC5=O)cc4)C(O)C3O)C(O)C(O)C2O1 (stereo not drawn) [Example 194]
Enterococcus sp.
  MIC Enterococcus avium (GC 4558): 2 µg/mL (≈ 1.42 µM)
  MIC Enterococcus faecalis (ATCC 29212): 2 µg/mL (≈ 1.42 µM)
  MIC Enterococcus faecalis (GC 2242): 1 µg/mL (≈ 0.708 µM)
  MIC Enterococcus faecalis (GC 2691): 2 µg/mL (≈ 1.42 µM)
  MIC Enterococcus faecalis (GC 3059): 1 µg/mL (≈ 0.708 µM)
  MIC Enterococcus faecalis (GC 4552): 1 µg/mL (≈ 0.708 µM)
  MIC Enterococcus faecalis (GC 4553): 2 µg/mL (≈ 1.42 µM)
  MIC Enterococcus faecalis (GC 4554): 1 µg/mL (≈ 0.708 µM)
  MIC Enterococcus faecalis (GC 6189): 0.5 µg/mL (≈ 0.354 µM)
  MIC Enterococcus faecium (GC 2243): 1 µg/mL (≈ 0.708 µM)
  MIC Enterococcus faecium (GC 4556): 1 µg/mL (≈ 0.708 µM)
  MIC Enterococcus faecium (GC 4557): 2 µg/mL (≈ 1.42 µM)
Enterococcus sp.; [1]
  MIC Enterococcus faecalis (ATCC 29212): 2 µg/mL (≈ 1.42 µM)
Enterococcus sp.; [2]
  MIC Enterococcus faecalis (GC 2242): 1 µg/mL (≈ 0.708 µM)
Enterococcus sp.; [3]
  MIC Enterococcus faecium (GC 2243): 1 µg/mL (≈ 0.708 µM)
Enterococcus sp.; [4]
  MIC Enterococcus faecalis (GC 2691): 2 µg/mL (≈ 1.42 µM)
Enterococcus sp.; [5]
  MIC Enterococcus faecalis (GC 3059): 1 µg/mL (≈ 0.708 µM)
Enterococcus sp.; [6]
  MIC Enterococcus faecalis (GC 4552): 1 µg/mL (≈ 0.708 µM)
Enterococcus sp.; [7]
  MIC Enterococcus faecalis (GC 4553): 2 µg/mL (≈ 1.42 µM)
Enterococcus sp.; [8]
  MIC Enterococcus faecalis (GC 4554): 1 µg/mL (≈ 0.708 µM)
Enterococcus sp.; [9]
  MIC Enterococcus faecium (GC 4556): 1 µg/mL (≈ 0.708 µM)
Enterococcus sp.; [10]
  MIC Enterococcus faecium (GC 4557): 2 µg/mL (≈ 1.42 µM)
Enterococcus sp.; [11]
  MIC Enterococcus avium (GC 4558): 2 µg/mL (≈ 1.42 µM)
Enterococcus sp.; [12]
  MIC Enterococcus faecalis (GC 6189): 0.5 µg/mL (≈ 0.354 µM)
Staphylococcus sp.; inoculum 5×10^5 CFU/mL
  MIC Staphylococcus aureus (GC 1131): 1 µg/mL (≈ 0.708 µM)
Staphylococcus sp.
  MIC Staphylococcus aureus (ATCC 29213): 0.5 µg/mL (≈ 0.354 µM)
  MIC Staphylococcus aureus (GC 1131): 1 µg/mL (≈ 0.708 µM)
  MIC Staphylococcus aureus (GC 3051): 1 µg/mL (≈ 0.708 µM)
  MIC Staphylococcus aureus (GC 3053): 1 µg/mL (≈ 0.708 µM)
  MIC Staphylococcus aureus (GC 4541): 0.5 µg/mL (≈ 0.354 µM)
  MIC Staphylococcus aureus (GC 4542): 0.5 µg/mL (≈ 0.354 µM)
  MIC Staphylococcus aureus-SMITH (GC 4543): 0.5 µg/mL (≈ 0.354 µM)
  MIC Staphylococcus aureus (GC 4544): 2 µg/mL (≈ 1.42 µM)
  MIC Staphylococcus aureus (GC 4545): 1 µg/mL (≈ 0.708 µM)
  MIC Staphylococcus haemolyticus (GC 4546): 0.5 µg/mL (≈ 0.354 µM)
  MIC Coagulase Negative Staphylococcus (GC 4547): 1 µg/mL (≈ 0.708 µM)
  MIC Coagulase Negative Staphylococcus (GC 4548): 0.5 µg/mL (≈ 0.354 µM)
  MIC Coagulase Negative Staphylococcus (GC 4549): 0.5 µg/mL (≈ 0.354 µM)
  MIC Coagulase Negative Staphylococcus (GC 4551): 1 µg/mL (≈ 0.708 µM)
  MIC Coagulase Negative Staphylococcus (GC 6257): 0.5 µg/mL (≈ 0.354 µM)
Streptococcus sp.
  MIC Streptococcus agalactiae (GC 4564): <0.06 µg/mL
  MIC Streptococcus pneumoniae (ATCC 6301): 0.25 µg/mL (≈ 0.177 µM)
  MIC Streptococcus pneumoniae (GC 1894): 0.12 µg/mL (≈ 0.085 µM)
  MIC Streptococcus pneumoniae (GC 4565): <0.06 µg/mL
  MIC Streptococcus pyogenes (GC 4563): <0.06 µg/mL
Streptococcus sp.; [13]
  MIC Streptococcus pneumoniae (ATCC 6301): 0.25 µg/mL (≈ 0.177 µM)
Streptococcus sp.; [14]
  MIC Streptococcus pneumoniae (GC 1894): 0.12 µg/mL (≈ 0.085 µM)
Streptococcus sp.; [15]
  MIC Streptococcus pyogenes (GC 4563): <0.06 µg/mL
Streptococcus sp.; [16]
  MIC Streptococcus agalactiae (GC 4564): <0.06 µg/mL
Streptococcus sp.; [17]
  MIC Streptococcus pneumoniae (GC 4565): <0.06 µg/mL
Escherichia coli
  MIC Escherichia coli (GC 4559): 32 µg/mL (≈ 22.7 µM)
  MIC Escherichia coli (GC 4560): 2 µg/mL (≈ 1.42 µM)

From US6914045B2, “Glycopeptide antibiotics” (Wyeth Holdings Corporation, priority 2001, dated 2005)
